The text below walks through data of patent US4341868A, “Method and test composition for the determination of the substrate for xanthine oxidase” (Kyowa Hakko Kogyo Co., Ltd., priority 1978, dated 1982).

In data set [1] the test system is xanthine oxidase. As to the kind of experiment: Substrate specificity (formed hydrogen peroxide, Method II). Format: biochemical, Enterobacter cloacae. The settings on record: for Relative activity: activity on xanthine defined as 100, 0.1 ml of 5 mM substrate, 0.25 U/ml enzyme, pH 7.3, 37° C.; for activity of xanthine oxidase on substrate (in words): conclusion from Table 1. The method, then: After completion of the reaction, the absorbancy of the reaction solution is measured at 500 nm. Molecular extinction coefficient of quinoneimine pigment formed in the reaction is 5.33×10^3 (Clinical Chemistry 20, 470, 1974). When a unit of enzyme activity is defined as the activity of enzyme which forms 1 μmol of hydrogen peroxide in one minute at 37° C. and at a pH of 7.3, the unit (U) of xanthine oxidase is as follows:
The same procedures as in Method II are repeated except that 0.25 U/ml xanthine oxidase and 0.1 ml of 5 mM solutions of various substrates are used, and the amount of the formed hydrogen peroxide is determined.

In data set [2] the test system is xanthine oxidase. As to the kind of experiment: Inhibition of xanthine oxidase (Method I). It is filed as biochemical, Enterobacter cloacae. As to conditions: for inhibition of xanthine oxidase (in words): conclusion from Table 2. The procedure: The reaction is carried out at 37° C. for ten minutes. […] The thus obtained value is defined as OD283. This value corresponds to the amount of uric acid formed.
Since the reaction product, uric acid has a maximum absorption at 283 nm in acidic region and the molecular extinction coefficient is 1.238×10^4 (Analytical Biochemistry 38, 65, 1970), the unit (U) of xanthine oxidase is as follows:
One unit of enzyme activity is defined as the activity of enzyme which forms 1 μmol of uric acid in one minute at 37° C. and at a pH of 7.3.
Xanthine oxidase activity is determined in the same manner as in Method I except that 0.25 U/ml xanthine oxidase solution is used and various enzyme inhibitors are added.

Data set [3] concerns xanthine oxidase. As to the kind of experiment: Experiment 3: electron acceptor of the present enzyme. Format: biochemical, Enterobacter cloacae. The method, then: 0.15 ml of 10 mM xanthine aqueous solution, 1.0 ml of 100 mM tris-hydrochloride buffer (pH 7.3), 0.65 ml of water and 1 ml of various electron acceptors shown in Table 3 are mixed. The mixture and a solution of xanthine oxidase obtained in Example 1 are incubated at 37° C. and then nitrogen gas is introduced into the mixture and the enzyme solution for 3~4 minutes to remove dissolved oxygen.
Then, 0.2 ml of 0.25 U/ml xanthine oxidase is added to 2.8 ml of the reaction mixture to initiate the reaction and the absorbancy is measured every 15 seconds. The values obtained during one minutes of 30 to 90 seconds after the addition of xanthine oxidase is used as data.
When oxygen is used as an acceptor, nitrogen gas is not introduced into the mixture and the reaction product, uric acid obtained using dissolved oxygen is determined by measuring the absorbancy at 295 nm.

For data set [4], the system named is xanthine oxidase derived from milk. As to conditions: ferricyanide 100; cited from earlier work.
Data set [5] concerns xanthine oxidase. Description: Examples 2 and 3: xanthine oxidase activity with nucleic acid compound added to the medium. It is filed as cell-based, Enterobacter cloacae KY 3066. The procedure:
In this example, 40 ml of the medium (pH 7.2) containing 0.5 g/dl yeast extract, 0.5 g/dl corn steep liquor, 0.1 g/dl peptone, 0.05 g/dl KH2 PO4, 0.1 g/dl K2 HPO4, […] and is sterilized at 120° C. for 15 minutes. One loopful of the seed culture of Enterobacter cloacae KY 3066 is inoculated into the medium and culturing is carried out at 30° C. for 48 hours.
The microbial cells are recovered from the culture liquor by centrifugation and are suspended in 20 ml of the buffer. The suspension is subjected to ultrasonic disintegration.

Data set [6] concerns xanthine oxidase. Format: biochemical, Enterobacter cloacae. The procedure: As a coloring solution, 0.1 M tris-hydrochloride buffer (pH 7.3) containing 10 mmol/l 4-aminoantipyrine, 10 mmol/l phenol and 490 U/100 ml peroxidase is prepared. […] The absorbancy of the reaction solution is measured at 500 nm.
Data set [7] concerns xanthine oxidase. The method, then:
The coloring solution is prepared by adding 445 U/100 ml peroxidase to 0.1 M tris-hydrochloride buffer (pH 7.3) containing 10 mmol/l 4-aminoantipyrine and 10 mmol/l phenol.
In this experiment, 40 ml of medium (pH 7.2) comprising hypoxanthine having concentrations indicated in Table 4, 0.5 g/dl yeast extract, 0.5 g/dl corn steep liquor, 0.1 g/dl peptone, 0.05 g/dl KH2 PO4, 0.1 g/dl K2 HPO4 and 0.05 g/dl MgSO4.7H2 O is poured into Sakaguchi flask and is sterilized at 120° C. for 15 minutes.
One loopful of the seed culture of Enterobacter cloacae KY 3066, FERM P 4077, NRRL B-11155 in a slant is inoculated into the medium and culturing is carried out with shaking at 30° C. for 48 hours.
After completion of the culturing, the culture liquor is subjected to centrifugation at 10,000 r.p.m for 15 minutes (hereinafter centrifugation is carried out under this condition) to obtain microbial cells. The thus obtained cells are suspended in 20 ml of 50 mM tris-hydrochloride buffer (pH 8.0) and then disrupted for ten minutes in an ultrasonic disintegration (Ultrasonic Generator KMS-250 type, made by Kubota Seisaku-sho). The resulting disrupted cell suspension is centrifuged to obtain a supernatant. Xanthine oxidase activity of the supernatant is determined according to the Determination Method II and the results are shown in Table 4 below.

The conditions of data set [8]: pH 7.3.
Method: Hypoxanthine is oxidized by the action of the present enzyme and the formed hydrogen peroxide is reacted with a coloring reagent.
The enzyme-containing solution is subjected to reaction at 37° C. and the absorbancy of the reaction solution colored by the formation of quinoneimine derived from hydrogen peroxide is measured at 500 nm at regular intervals.
The solution is subjected to reaction at 37° C. and the absorbancy of the reaction solution is measured at 293 nm at regular intervals.

Where a name gives a salt, the structure may show the parent alone. Read-outs that look alike come from different tables or passages of the source. Some results are limits rather than exact numbers.

Turning to `Oc1ncc2[nH]cnc2n1` [2-Hydroxypurine], in the data set on xanthine oxidase [1], the Relative activity was 88.5% and the “activity of xanthine oxidase on substrate (in words)” value (“activity of xanthine oxidase” below) is “strong activity”.
The compound `Sc1ncnc2nc[nH]c12` [6-mercaptopurine] had a Relative activity in the data set on xanthine oxidase [1] of 4.4%.
Consider `Nc1ncnc2nc[nH]c12` [Adenine], for which the Relative activity in the data set on xanthine oxidase [1] amounted to 0%.
The same measure, in the same setting: then `Nc1ncnc2c1ncn2[C@@H]1O[C@H](CO)[C@@H](O)[C@H]1O` [Adenosine], with 2.5%.
Regarding `O=[N+]([O-])[O-].[Ag+]` [AgNO3], the “inhibition of xanthine oxidase (in words)” value (from here on “inhibition … (in words)”) in the data set on xanthine oxidase [2] is recorded as “inhibitors of xanthine oxidase”. The Inhibition rate with xanthine oxidase [2] (inhibitor 1 × 10^-4 M) is 97.8%; in the data set on xanthine oxidase [2] (inhibitor 1 × 10^-5 M), 98.2%; with xanthine oxidase [2] (inhibitor 1 × 10^-6 M), 54.8%; with xanthine oxidase [2] (inhibitor 1 × 10^-7 M), 0%.
For the compound `O.O.[Cl][Cu][Cl]` [CuCl2.2H2 O], the “inhibition … (in words)” value in the data set on xanthine oxidase [2] was “inhibitors of xanthine oxidase”. Further, the Inhibition rate worked out at 96.3% with xanthine oxidase [2] (inhibitor 1 × 10^-4 M), 79.6% in the data set with xanthine oxidase [2] (inhibitor 1 × 10^-5 M), 12.9% in the data set with xanthine oxidase [2] (inhibitor 1 × 10^-6 M) and 0% in the data set with xanthine oxidase [2] (inhibitor 1 × 10^-7 M).
For `[Cl][Cu]` [CuCl], the “inhibition … (in words)” value in the data set with xanthine oxidase [2] is given as “inhibitors of xanthine oxidase”. Besides, the Inhibition rate in the data set with xanthine oxidase [2] (inhibitor 1 × 10^-4 M) was 90.5%; with xanthine oxidase [2] (inhibitor 1 × 10^-5 M), 53.5%; with xanthine oxidase [2] (inhibitor 1 × 10^-6 M), 2.2%.
As for `O=C1C(Cl)=CC(=Nc2ccc(O)cc2)C=C1Cl` [DCPIP, 2,6-sodium salt of dichlorphenol indophenol], the Relative activity in the data set with xanthine oxidase [3] (acceptor 0.04 mM, 600 nm) is recorded as 9.2%; in data set [4] it was 35.
Consider `Nc1nc2c(ncn2[C@@H]2O[C@H](COP(=O)(O)O)[C@@H](O)[C@H]2O)c(=O)[nH]1` [Disodium 2,5'-guaninate], for which, in the data set on xanthine oxidase [5] (amount of addition 0.81 g/dl), the Xanthine oxidase worked out at 0.30 U/ml.
With `O.O.O.O.O.O.O.O=S(=O)([O-])[O-].[Fe+2]` [FeSO4.7H2 O], the “inhibition … (in words)” value in the data set on xanthine oxidase [2] is on record as “inhibitors of xanthine oxidase”. In addition, the Inhibition rate in the data set on xanthine oxidase [2] (inhibitor 1 × 10^-4 M) is recorded as 92.3%; with xanthine oxidase [2] (inhibitor 1 × 10^-5 M), 0%.
In the case of `Nc1nc2nc[nH]c2c(=O)[nH]1` [Guanine], in the data set with xanthine oxidase [1], the Relative activity is recorded as 53.3% and the “activity of xanthine oxidase” value is on record as “strong activity”. The same compound came in with a Xanthine oxidase in the data set with xanthine oxidase [5] (amount of addition 0.3 g/dl) of 0.14 U/ml.
`Nc1nc2c(ncn2[C@@H]2O[C@H](CO)[C@@H](O)[C@H]2O)c(=O)[nH]1` [Guanosine] gave a Relative activity with xanthine oxidase [1] of 0%.
As to `O=c1[nH]cnc2nc[nH]c12` [Hypoxanthine], the Relative activity in the data set on xanthine oxidase [1] worked out at 92.3%. Besides, the “activity of xanthine oxidase” value with xanthine oxidase [1] was “strong activity”. In the data set on xanthine oxidase [6], the “[B]/[A] (formed hydrogen peroxide / substrate)” value amounted to 1.80. In addition, the “Amount of formed hydrogen peroxide [B]” value in the data set with xanthine oxidase [6] (pH 7.3) was found to be 0.27 µmol. The Xanthine oxidase activity is listed as 20.0 U/dl with xanthine oxidase [7] (hypoxanthine 0.1 g/dl); 31.2 U/dl in the data set on xanthine oxidase [7] (hypoxanthine 0.2 g/dl); 47.3 U/dl in the data set with xanthine oxidase [7] (hypoxanthine 0.3 g/dl); 48.4 U/dl in the data set on xanthine oxidase [7] (hypoxanthine 0.5 g/dl); 55.2 U/dl in the data set on xanthine oxidase [7] (hypoxanthine 1.0 g/dl); 49.0 U/dl with xanthine oxidase [7] (hypoxanthine 3.0 g/dl).
With `OC[C@H]1O[C@@H](n2cnc3c(O)ncnc32)[C@H](O)[C@@H]1O` [Inosine], the Relative activity with xanthine oxidase [1] is 0%. The same compound returned a Xanthine oxidase in the data set with xanthine oxidase [5] (amount of addition 0.54 g/dl) of 0.20 U/ml.
Turning to `O=C1O[C@H]([C@@H](O)CO)C(O)=C1O` [L-ascorbic acid], the “inhibition … (in words)” value with xanthine oxidase [2] is “inhibitors of xanthine oxidase”. Moreover, the Inhibition rate in the data set on xanthine oxidase [2] (inhibitor 1 × 10^-3 M) stood at 88.9%; with xanthine oxidase [2] (inhibitor 1 × 10^-4 M), 82.7%; in the data set with xanthine oxidase [2] (inhibitor 1 × 10^-5 M), 61.7%; with xanthine oxidase [2] (inhibitor 1 × 10^-6 M) it was 0%.
On to `NC(=O)C1=CN([C@@H]2O[C@H](COP(=O)(O)OP(=O)(O)OC[C@H]3O[C@@H](n4cnc5c(N)ncnc54)[C@H](O)[C@@H]3O)[C@@H](O)[C@H]2O)C=CC1` [NADH], for which the Relative activity in the data set with xanthine oxidase [1] was 0%.
On to `NC(=O)c1ccc[n+]([C@@H]2O[C@H](COP(=O)([O-])OP(=O)(O)OC[C@H]3O[C@@H](n4cnc5c(N)ncnc54)[C@H](OP(=O)(O)O)[C@@H]3O)[C@@H](O)[C@H]2O)c1` [NADP], for which the Relative activity in the data set on xanthine oxidase [3] (acceptor 0.1 mM, 340 nm) worked out at 0%.
`NC(=O)c1ccc[n+]([C@@H]2O[C@H](COP(=O)([O-])OP(=O)(O)OC[C@H]3O[C@@H](n4cnc5c(N)ncnc54)[C@H](O)[C@@H]3O)[C@@H](O)[C@H]2O)c1` [NAD]: the Relative activity in the data set on xanthine oxidase [3] (acceptor 0.1 mM, 340 nm) is on record as 0%; in data set [4], under 1.3.
For `O=O` [Oxygen], the “acceptor of the present enzyme (in words)” value in the data set on xanthine oxidase [3] is recorded as “best acceptor”. In addition, the Relative activity is listed as 100% in the data set on xanthine oxidase [3] (dissolved oxygen, 295 nm) and 83 in data set [4].
`O=C([O-])c1cc[c]([Hg][Cl])cc1.[Na+]` [PCMB, Sodium salt of pchloromercuribenzoic acid]: in the data set with xanthine oxidase [2], the “inhibition … (in words)” value is given as “inhibitors of xanthine oxidase”. The Inhibition rate is recorded as 76.6% in the data set on xanthine oxidase [2] (inhibitor 1 × 10^-4 M), 34.7% with xanthine oxidase [2] (inhibitor 1 × 10^-5 M) and 0% with xanthine oxidase [2] (inhibitor 1 × 10^-6 M).
Regarding `c1ncc2[nH]cnc2n1` [Purine], in the data set with xanthine oxidase [1], the Relative activity is listed as 23.3% and the “activity of xanthine oxidase” value is “strong activity”.
For the compound `Cn1cnc2c1c(=O)[nH]c(=O)n2C` [Theobromine], in the data set with xanthine oxidase [1], the Relative activity amounted to 0%.
On the same count and under the same terms, then `Cn1c(=O)c2[nH]cnc2n(C)c1=O` [Theophylline], with 0%.
As to `O=c1[nH]c(=O)c2[nH]c(=O)[nH]c2[nH]1` [Uric acid], in the data set on xanthine oxidase [1], the Relative activity was determined as 0%.
For the compound `O=c1[nH]c(=O)c2[nH]cnc2[nH]1` [Xanthine], in the data set on xanthine oxidase [1], the Relative activity is reported as 100% and the “activity of xanthine oxidase” value is “strong activity”. The “Amount of formed hydrogen peroxide [B]” value with xanthine oxidase [6] (substrate 0.15 μmol, 0.93 U xanthine oxidase, pH 7.3, 37° C., 20 minutes) came out at 0.14 µmol. In addition, the “[B]/[A] (formed hydrogen peroxide / substrate)” value in the data set on xanthine oxidase [6] (substrate 0.15 μmol, 37° C., 20 minutes) is 0.93. Further, in the data set on xanthine oxidase [5] (amount of addition 0.3 g/dl), the Xanthine oxidase turned out to be 0.13 U/ml.
For `O=c1[nH]c(=O)c2ncn([C@@H]3O[C@H](CO)[C@@H](O)[C@H]3O)c2[nH]1` [Xanthosine], the Relative activity in the data set with xanthine oxidase [1] is recorded as 0%. In addition, the Xanthine oxidase in the data set on xanthine oxidase [5] (amount of addition 0.57 g/dl) was 0.20 U/ml.
For the compound Cytochrome C: electron acceptor, in the data set on xanthine oxidase [3] (acceptor 0.1 mM, 550 nm), the Relative activity was 0%.
As to “xanthine oxidase derived from milk: xanthine oxidase derived from milk (product of Boehringer Mannheim Co.)”, the “stability of pigment (in words)” value in data set [8] is recorded as “then decrease in spite of the continuous formation of uric acid”.
